System: peptidylglycine α-amidating monooxygenase (PAM)
Test: PAM treatment of hippurate: benzamide by HPLC, glyoxylate by malate synthase/malate dehydrogenase/MTS/PMS system
Assay type: biochemical
Conditions: PAM added to hippurate
Description: Spectrophotometric enzyme-linked assays for glyoxylate were initiated by the addition of malate synthase and malate dehydrogenase. […] The absorbance at 490 nm was measured after one hour incubation at 37° C. in the dark. The small amount of MTS reduced for the zero glyoxylate control was subtracted from that obtained in the presence of glyoxylate. Hippurate (N-benzoylglycine, C6H5—CO—NH—CH2—COO^−) is a PAM substrate that is oxidatively converted to benzamide and glyoxylate. […] At 10 min intervals over a period of 110 minutes, 45 μl aliquots were removed and added to 10 μl of 6% (v/v) trifluoroacetic acid to terminate the reaction. Percent conversion of hippurate to benzamide was determined at each time interval by reverse-phase HPLC. […] Following ascorbate removal the addition of 100 ul enzyme couple and PMS/MTS brought the assay to a final volume of 1 ml which contained 100 mM TEA-HCl pH 7.8, 10 mM MgCl2, 400 μM acetyl-CoA, 500 μM NAD^+, 6 U/ml malate synthase, 6 U/ml malate dehydrogenase, and 12 units ascorbate oxidase. […] A control for this experiment was performed at each time point, and contained no hippurate.

O=C(O)CNC(=O)c1ccccc1 [Hippurate, N-benzoylglycine]
Benzamide Produced (Time 40): 0.58 mM
Glyoxylate Produced (Time 40): 0.69 mM
Benzamide Produced (Time 50): 0.70 mM
Glyoxylate Produced (Time 50): 0.67 mM
Benzamide Produced (Time 60): 0.80 mM
Glyoxylate Produced (Time 60): 0.71 mM
Benzamide Produced (Time 70): 0.90 mM
Glyoxylate Produced (Time 70): 0.75 mM
Benzamide Produced (Time 80): 0.98 mM
Glyoxylate Produced (Time 80): 0.77 mM
Benzamide Produced (Time 90): 1.1 mM
Glyoxylate Produced (Time 90): 1.3 mM
Benzamide Produced (Time 100): 1.2 mM
Glyoxylate Produced (Time 100): 1.3 mM
Benzamide Produced (Time 110): 1.3 mM
Glyoxylate Produced (Time 110): 1.3 mM
